In US7342014B2, “Diamine derivatives” (Daiichi Pharmaceutical Co., Ltd., priority 2001, dated 2008) one finds melting point data, which are given here for 30 molecules.

As usually defined, the melting point is the temperature, or range, at which the solid turns liquid.

Where a name gives a salt, the structure may show the parent alone.

For the molecule `CC(C)N1CCc2nc(C(=O)N[C@@H]3CN(S(C)(=O)=O)C[C@H]3NC(=O)c3cc4cc(Cl)ccc4[nH]3)sc2C1` (as salt: hydrochloride), the melting point is 230 to 235 °C (dec.). Take `CN1CCc2nc(C(=O)N[C@@H]3CNC[C@H]3NC(=O)c3cc4cc(Cl)ccc4[nH]3)sc2C1` (as salt: hydrochloride): the melting point is 248 to 250 °C (dec.). Consider `CC(=O)N1C[C@@H](NC(=O)c2cc3cc(Cl)ccc3[nH]2)[C@H](NC(=O)c2nc3c(s2)CN(C(C)C)CC3)C1` (as salt: hydrochloride) [Example 114, N-((3R,4R)-1-Acetyl-4-{[(5-chloroindol-2-yl)carbonyl]-amino}pyrrolidin-3-yl)-5-isopropyl-4,5,6,7-tetrahydro-thiazolo[5,4-c]pyridine-2-carboxamide hydrochloride], for which the melting point is 254 to 258 °C (dec.). Consider `CCOC(=O)N1C[C@@H](NC(=O)c2cc3cc(Cl)ccc3[nH]2)[C@H](NC(=O)c2nc3c(s2)CN(C(C)C)CC3)C1` (as salt: hydrochloride) [Example 116, Ethyl (3R,4R)-3-{[(5-chloroindol-2-yl)carbonyl]amino}-4-{[(5-isopropyl-4,5,6,7-tetrahydrothiazolo[5,4-c]pyridin-2-yl)carbonyl]amino}pyrrolidine-1-carboxylate hydrochloride], for which the melting point is 225 to 228 °C (dec.).

With `COCC(=O)N1CC[C@H](NC(=O)c2cc3cc(Cl)ccc3[nH]2)[C@H](NC(=O)c2nc3c(s2)CN(C)CC3)C1` (as salt: hydrochloride) [Example 171, N-[(3R,4S)-4-{[(5-Chloroindol-2-yl)carbonyl]amino}-1-(2-methoxyacetyl)piperidin-3-yl]-5-methyl-4,5,6,7-tetrahydro-thiazolo[5,4-c]pyridine-2-carboxamide hydrochloride], the melting point is 207 to 220 °C (dec.). For `COCC(=O)N1CC[C@@H](NC(=O)c2cc3cc(Cl)ccc3[nH]2)[C@H](NC(=O)c2nc3c(s2)CN(C)CC3)C1` (as salt: hydrochloride) [Example 172, N-[(3R,4R)-4-{[(5-Chloroindol-2-yl)carbonyl]amino}-1-(2-methoxyacetyl)piperidin-3-yl]-5-methyl-4,5,6,7-tetrahydro-thiazolo[5,4-c]pyridine-2-carboxamide hydrochloride], the melting point lay in the range of 213 to 230 °C.

As to `CC(=O)N1CC[C@H](NC(=O)c2cc3cc(F)ccc3[nH]2)[C@H](NC(=O)c2nc3c(s2)CN(C)CC3)C1` (relative stereo) (as salt: hydrochloride), the melting point is 202 °C (dec.). In the case of `CN1CCc2nc(C(=O)N[C@@H]3CCN(S(C)(=O)=O)C[C@@H]3NC(=O)c3cc4cc(Cl)ccc4[nH]3)sc2C1` (relative stereo) (as salt: hydrochloride), the melting point was 228 to 245 °C (dec.). For the molecule `COCCOC(=O)N1CC[C@H](NC(=O)c2cc3cc(Cl)ccc3[nH]2)[C@H](NC(=O)c2nc3c(s2)CN(C)CC3)C1` (relative stereo) (as salt: hydrochloride), the melting point is 224 to 226 °C (dec.). On to `CCOC(=O)N1CC[C@@H](NC(=O)c2nc3c(s2)CN(C)CC3)[C@@H](NC(=O)c2cc3cc(Cl)ccc3[nH]2)C1` (relative stereo) (as salt: hydrochloride), for which the melting point was 213 to 225 °C (dec.). To `CC(C)C(=O)N1CC[C@H](NC(=O)c2cc3cc(Cl)ccc3[nH]2)[C@H](NC(=O)c2nc3c(s2)CN(C)CC3)C1` (relative stereo) (as salt: hydrochloride) belongs 266 to 272 °C (dec.); to `CN1CCc2nc(C(=O)N[C@@H]3CN(C(=O)C(C)(C)C)CC[C@@H]3NC(=O)c3cc4cc(Cl)ccc4[nH]3)sc2C1` (relative stereo) (as salt: hydrochloride), 250 to 255 °C (dec.); to `CN1CCc2nc(C(=O)N[C@@H]3CN(C(=O)C4CCC4)CC[C@@H]3NC(=O)c3cc4cc(Cl)ccc4[nH]3)sc2C1` (relative stereo) (as salt: hydrochloride), 271 to 275 °C (dec.). The same measure for `CN1CCc2nc(C(=O)N[C@@H]3CN(C(=O)C4CCCC4)CC[C@@H]3NC(=O)c3cc4cc(Cl)ccc4[nH]3)sc2C1` (relative stereo) (as salt: hydrochloride): 254 to 260 °C (dec.).

For `COCC(=O)N1CC[C@H](NC(=O)c2cc3cc(F)ccc3[nH]2)[C@H](NC(=O)c2nc3c(s2)CN(C)CC3)C1` (relative stereo) (as salt: hydrochloride), the melting point was 190 to 208 °C (dec.). For the molecule `CN1CCc2nc(C(=O)N[C@@H]3CN(C(=O)C4CC(O)C4)CC[C@@H]3NC(=O)c3cc4cc(Cl)ccc4[nH]3)sc2C1` (relative stereo) (as salt: hydrochloride), the melting point was 200 °C (dec.). As for `COC1CC(C(=O)N2CC[C@H](NC(=O)c3cc4cc(Cl)ccc4[nH]3)[C@H](NC(=O)c3nc4c(s3)CN(C)CC4)C2)C1` (relative stereo) (as salt: hydrochloride), the melting point was 191 °C (dec.). The same measure for `CN1CCc2nc(C(=O)N[C@@H]3CN(C(=O)C4CCOCC4)CC[C@@H]3NC(=O)c3cc4cc(Cl)ccc4[nH]3)sc2C1` (relative stereo) (as salt: hydrochloride): 225 to 248 °C (dec.); for `COCC(=O)N1CC[C@H](NC(=O)c2cc3cc(Cl)ccc3[nH]2)[C@H](NC(=O)c2nc3c(s2)CN(C(C)(C)CO)CC3)C1` (relative stereo) (as salt: hydrochloride): 221 to 232 °C (dec.).

On to `COCC(=O)N1CC[C@H](NC(=O)c2cc3cc(F)ccc3[nH]2)[C@H](NC(=O)c2nc3c(s2)CN(C(C)C)CC3)C1` (relative stereo) (as salt: hydrochloride), for which the melting point is 214 to 228 °C (dec.). As for `CCNC(=O)N1CC[C@H](NC(=O)c2cc3cc(Cl)ccc3[nH]2)[C@H](NC(=O)c2nc3c(s2)CN(C)CC3)C1` (relative stereo) (as salt: hydrochloride), the melting point was 221 to 235 °C (dec.). As to `COCCN1CC[C@H](NC(=O)c2cc3cc(Cl)ccc3[nH]2)[C@H](NC(=O)c2nc3c(s2)CN(C)CC3)C1` (relative stereo) (as salt: hydrochloride), the melting point was 238 to 242 °C (dec.). The same measure for `CN1CCc2nc(C(=O)N[C@@H]3CNCC[C@@H]3NC(=O)c3cc4cc(Cl)ccc4[nH]3)sc2C1` (relative stereo) (as salt: hydrochloride) [Example 118, N-((3R*,4S*)-4-{[(5-Chloroindol-2-yl)carbonyl]amino}-piperidin-3-yl)-5-methyl-4,5,6,7-tetrahydrothiazolo[5,4-c]pyridine-2-carboxamide dihydrochloride]: 240 to 258 °C (dec.).

For `CN1CCc2nc(C(=O)N[C@@H]3CNCC[C@@H]3NC(=O)c3cc4cc(F)ccc4[nH]3)sc2C1` (relative stereo) (as salt: hydrochloride) [Example 122, N-((3R*,4S*)-4-{[(5-Fluoroindol-2-yl)carbonyl]amino}-piperidin-3-yl)-5-methyl-4,5,6,7-tetrahydrothiazolo[5,4-c]pyridine-2-carboxamide dihydrochloride], the melting point is 236 to 245 °C (dec.). Turning to `CC(=O)N1CC[C@@H](NC(=O)c2nc3c(s2)CN(C)CC3)[C@@H](NC(=O)c2cc3cc(Cl)ccc3[nH]2)C1` (relative stereo) (as salt: hydrochloride) [Example 124, N-((3R*,4S*)-1-Acetyl-3-{[(5-chloroindol-2-yl)carbonyl]-amino}piperidin-4-yl)-5-methyl-4,5,6,7-tetrahydro-thiazolo[5,4-c]pyridine-2-carboxamide hydrochloride], the melting point was 225 to 250 °C (dec.). To `CN1CCc2nc(C(=O)N[C@@H]3CN(S(C)(=O)=O)CC[C@@H]3NC(=O)c3cc4cc(Cl)ccc4[nH]3)sc2C1` (relative stereo) (as salt: hydrochloride) [Example 126, N-[(3R*,4S*)-{[(5-Chloroindol-2-yl)carbonyl]amino}-1-(methylsulfonyl)piperidin-3-yl]-5-methyl-4,5,6,7-tetrahydrothiazolo[5,4-c]pyridine-2-carboxamide hydrochloride] belongs 225 to 230 °C (dec.); to `CN1CCc2nc(C(=O)N[C@@H]3CN(S(C)(=O)=O)CC[C@@H]3NC(=O)c3cc4cc(F)ccc4[nH]3)sc2C1` (relative stereo) (as salt: hydrochloride) [Example 128], 216 to 250 °C (dec.); to `COC(=O)N1CC[C@H](NC(=O)c2cc3cc(Cl)ccc3[nH]2)[C@H](NC(=O)c2nc3c(s2)CN(C)CC3)C1` (relative stereo) (as salt: hydrochloride) [Example 129, Methyl (3R*,4S*)-4-{[(5-chloroindol-2-yl)carbonyl]amino}-3-{[(5-methyl-4,5,6,7-tetrahydrothiazolo[5,4-c]pyridin-2-yl)carbonyl]amino}piperidine-1-carboxylate hydrochloride], 248 to 253 °C (dec.).

For the molecule `CCOC(=O)N1CC[C@H](NC(=O)c2cc3cc(Cl)ccc3[nH]2)[C@H](NC(=O)c2nc3c(s2)CN(C)CC3)C1` (relative stereo) (as salt: hydrochloride) [Example 130, Ethyl (3R*,4S*)-4-{[(5-chloroindol-2-yl)carbonyl]amino}-3-{[(5-methyl-4,5,6,7-tetrahydrothiazolo[5,4-c]pyridin-2-yl)carbonyl]amino}piperidine-1-carboxylate hydrochloride], the melting point is 215 to 225 °C (dec.). Turning to `CCC(=O)N1CC[C@H](NC(=O)c2cc3cc(Cl)ccc3[nH]2)[C@H](NC(=O)c2nc3c(s2)CN(C)CC3)C1` (relative stereo) (as salt: hydrochloride) [Example 133, N-((3R*,4S*)-4-{[(5-Chloroindol-2-yl)carbonyl]amino}-1-propionylpiperidin-3-yl)-5-methyl-4,5,6,7-tetrahydro-thiazolo[5,4-c]pyridine-2-carboxamide hydrochloride], the melting point is 214 to 228 °C (dec.).
